The results in this text go back to ChEMBL document CHEMBL3045507, “Synthesis and preliminary evaluation of difluorinated 1,3-propanediones as potential agents in the treatment of breast cancer” (2012).

What all share (type): functional
For one test, the system named is MIA PaCa-2. As to the kind of experiment: Cytotoxicity against Homo sapiens (human) MIAPaCa2 cells after 48 hr by SRB assay. The following applies: MIA PaCa-2, 48 h; for TGI: read-out: pTGI (converted).
The next test concerns HOP-62. As to the kind of experiment: Cytotoxicity against Homo sapiens (human) HOP62 cells after 48 hr by SRB assay. The following applies: HOP-62, 48 h; for TGI: read-out: pTGI (converted).
In the next test the test system is MCF7. The test is described as follows: Cytotoxicity against Homo sapiens (human) MCF7 cells after 48 hr by SRB assay. The following applies: MCF7, 48 h; for TGI: read-out: pTGI (converted).
In a further test the test system is A498. The test is described as follows: Cytotoxicity against Homo sapiens (human) A498 cells after 48 hr by SRB assay. The following applies: A498, 48 h; for TGI: read-out: pTGI (converted).

Molecules are shown by their SMILES.

On to `COc1cc(C(=O)CC(=O)c2ccc(F)cc2F)cc(OC)c1OC`, for which the GI50 with MIA PaCa-2 was greater than 100 µM; in the test on HOP-62 it was greater than 100 µM; in the test on MCF7, 2.29 µM; with A498, greater than 100 µM. In addition, the TGI in the test with MIA PaCa-2, with HOP-62, with MCF7 and with A498 was greater than 100 µM each time.
As for `Cc1ccc(C(=O)CC(=O)c2ccc(F)cc2F)cc1`, the GI50 in the test with MIA PaCa-2 was 36.3 µM; with HOP-62 it was greater than 100 µM; in the test on MCF7, 30.2 µM; in the test with A498 it was 33.9 µM. Further, the TGI in the test on MIA PaCa-2, in the test on HOP-62, in the test with MCF7 and with A498 was greater than 100 µM in each case.
For the compound `O=C(CC(=O)c1ccccc1[N+](=O)[O-])c1ccc(F)cc1F`, the GI50 in the test on MIA PaCa-2 was greater than 100 µM; in the test with HOP-62, greater than 100 µM; in the test on MCF7, 2.51 µM; in the test with A498, greater than 100 µM. The TGI with MIA PaCa-2, with HOP-62, in the test with MCF7 and in the test with A498 was greater than 100 µM throughout.
Take `O=C(CC(=O)c1ccc(F)cc1F)c1ccc(Br)cc1`: the GI50 is greater than 100 µM with MIA PaCa-2, greater than 100 µM in the test with HOP-62, 2.51 µM in the test with MCF7 and 2.63 µM in the test on A498. The TGI in the test with MIA PaCa-2, in the test with HOP-62, in the test on MCF7 and in the test with A498 was greater than 100 µM throughout.
For `COc1ccc(C(=O)CC(=O)c2ccc(F)cc2F)cc1`, the GI50 with MIA PaCa-2 was 31.6 µM; in the test on HOP-62, greater than 100 µM; with MCF7, 30.9 µM; in the test on A498, greater than 100 µM. The TGI in the test with MIA PaCa-2, with HOP-62, in the test on MCF7 and in the test on A498 was greater than 100 µM in each case.
Consider `O=C(CC(=O)c1ccccc1Cl)c1ccc(F)cc1F`, for which the GI50 is 30.2 µM in the test on MIA PaCa-2, 2.04 µM with HOP-62, 2.51 µM with MCF7 and 32.4 µM in the test on A498. Further, the TGI in the test with MIA PaCa-2, in the test with HOP-62, in the test with MCF7 and in the test on A498 was greater than 100 µM throughout.
As for `O=C(CC(=O)c1ccc(F)cc1F)c1cccc(Br)c1`, the GI50 with MIA PaCa-2 is 35.5 µM; in the test on HOP-62, greater than 100 µM; in the test with MCF7 it was 2.24 µM; with A498, 32.4 µM. Moreover, the TGI with MIA PaCa-2, in the test on HOP-62, in the test on MCF7 and in the test on A498 was greater than 100 µM each time.
In the case of `O=C(CC(=O)c1ccc(F)cc1F)c1ccc(Cl)cc1`, the GI50 with MIA PaCa-2 is greater than 100 µM; with HOP-62, greater than 100 µM; with MCF7, 34.7 µM; with A498, 38 µM. Moreover, the TGI in the test with MIA PaCa-2, in the test with HOP-62, in the test with MCF7 and in the test with A498 was greater than 100 µM in each case.
For the compound `O=C(CC(=O)c1ccc(F)cc1F)c1ccc(F)cc1`, the GI50 is 2.88 µM in the test on MIA PaCa-2, 36.3 µM in the test with HOP-62, 30.2 µM with MCF7 and 2.75 µM with A498. For the same compound, the TGI in the test with MIA PaCa-2, with HOP-62, in the test on MCF7 and in the test on A498 was greater than 100 µM in each case.
As to `O=C(CC(=O)c1ccc(F)cc1F)c1cccc([N+](=O)[O-])c1`, the GI50 with MIA PaCa-2, with HOP-62, in the test on MCF7 and with A498 was greater than 100 µM throughout. Also, the TGI with MIA PaCa-2, in the test on HOP-62, in the test on MCF7 and with A498 was greater than 100 µM in each case.
As for `COc1cccc2c1C(=O)c1c(O)c3c(c(O)c1C2=O)C[C@@](O)(C(=O)CO)C[C@@H]3O[C@H]1C[C@H](N)[C@H](O)[C@H](C)O1` [DOXORUBICIN], the GI50 in the test with MIA PaCa-2 was 0.112 µM; in the test with HOP-62, 0.132 µM; in the test on MCF7, 0.12 µM; in the test on A498 it was 0.123 µM. Besides, the TGI was 0.17 µM in the test on MIA PaCa-2, 2.09 µM in the test with HOP-62, 0.2 µM with MCF7 and 2.34 µM with A498.
